Measurements: PubChem BioAssay (NCI)
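These data come from cells grown in 96-well plates and exposed to compound for 48 hours at five concentrations. At the GI50, growth is halved. Definition used: TGI = concentration required for complete inhibition of growth.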

Legend:
Experiment in all cases: DTP human tumour cell line panel, 48 h
786-0 renal = test system: 786-0 renal
A498 renal = test system: A498 renal
A549 NSCLC = test system: A549 NSCLC
ACHN renal = test system: ACHN renal
BT-549 breast = test system: BT-549 breast
CAKI-1 renal = test system: CAKI-1 renal
CCRF-CEM leukemia = test system: CCRF-CEM leukemia
COLO 205 colon = test system: COLO 205 colon
DU-145 prostate = test system: DU-145 prostate
EKVX NSCLC = test system: EKVX NSCLC
HCC-2998 colon = test system: HCC-2998 colon
HCT-116 colon = test system: HCT-116 colon
HCT-15 colon = test system: HCT-15 colon
HL-60(TB) leukemia = test system: HL-60(TB) leukemia
HOP-62 NSCLC = test system: HOP-62 NSCLC
HOP-92 NSCLC = test system: HOP-92 NSCLC
HS 578T breast = test system: HS 578T breast
HT29 colon = test system: HT29 colon
IGROV1 ovarian = test system: IGROV1 ovarian
K-562 leukemia = test system: K-562 leukemia
KM12 colon = test system: KM12 colon
M14 melanoma = test system: M14 melanoma
MALME-3M melanoma = test system: MALME-3M melanoma
MCF7 breast = test system: MCF7 breast
MDA-MB-231 breast = test system: MDA-MB-231 breast
MDA-MB-435 = test system: MDA-MB-435
MDA-MB-468 breast = test system: MDA-MB-468 breast
MOLT-4 leukemia = test system: MOLT-4 leukemia
NCI-H226 lung = test system: NCI-H226 lung
NCI-H23 lung = test system: NCI-H23 lung
NCI-H460 lung = test system: NCI-H460 lung
NCI-H522 lung = test system: NCI-H522 lung
NCI/ADR-RES ovarian = test system: NCI/ADR-RES ovarian
OVCAR-3 ovarian = test system: OVCAR-3 ovarian
OVCAR-4 ovarian = test system: OVCAR-4 ovarian
OVCAR-5 ovarian = test system: OVCAR-5 ovarian
OVCAR-8 ovarian = test system: OVCAR-8 ovarian
PC-3 prostate = test system: PC-3 prostate
RPMI-8226 leukemia = test system: RPMI-8226 leukemia
RXF 393 renal = test system: RXF 393 renal
SF-268 CNS = test system: SF-268 CNS
SF-295 CNS = test system: SF-295 CNS
SF-539 CNS = test system: SF-539 CNS
SK-MEL-2 melanoma = test system: SK-MEL-2 melanoma
SK-MEL-28 melanoma = test system: SK-MEL-28 melanoma
SK-MEL-5 melanoma = test system: SK-MEL-5 melanoma
SK-OV-3 ovarian = test system: SK-OV-3 ovarian
SN12C renal = test system: SN12C renal
SNB-19 CNS = test system: SNB-19 CNS
SNB-75 CNS = test system: SNB-75 CNS
SR leukemia = test system: SR leukemia
SW-620 colon = test system: SW-620 colon
T-47D breast = test system: T-47D breast
TK-10 renal = test system: TK-10 renal
U251 CNS = test system: U251 CNS
UACC-257 melanoma = test system: UACC-257 melanoma
UACC-62 melanoma = test system: UACC-62 melanoma
UO-31 renal = test system: UO-31 renal

Cn1cc(-c2cc(N)n3nc(-c4cn(C)c5ccccc45)cc3n2)c2cc(F)ccc21
GI50 (786-0 renal): 1.51 µM
TGI (786-0 renal): 2.92 µM
GI50 (A498 renal): 14.6 µM
TGI (A498 renal): 29 µM
GI50 (A549 NSCLC): 2.17 µM
TGI (A549 NSCLC): 6.44 µM
GI50 (ACHN renal): 1.77 µM
TGI (ACHN renal): 3.45 µM
GI50 (BT-549 breast): 10.5 µM
TGI (BT-549 breast): 25.3 µM
GI50 (CAKI-1 renal): 1.84 µM
TGI (CAKI-1 renal): 3.98 µM
GI50 (CCRF-CEM leukemia): 3.19 µM
TGI (CCRF-CEM leukemia): 24.2 µM
GI50 (COLO 205 colon): 1.89 µM
TGI (COLO 205 colon): 3.57 µM
GI50 (DU-145 prostate): 4.15 µM
TGI (DU-145 prostate): 22.3 µM
GI50 (EKVX NSCLC): 3.02 µM
TGI (EKVX NSCLC): 15.7 µM
GI50 (HCC-2998 colon): 1.78 µM
TGI (HCC-2998 colon): 3.32 µM
GI50 (HCT-116 colon): 1.76 µM
TGI (HCT-116 colon): 3.18 µM
GI50 (HCT-15 colon): 1.79 µM
TGI (HCT-15 colon): 4.02 µM
GI50 (HL-60(TB) leukemia): 2.1 µM
TGI (HL-60(TB) leukemia): 5.11 µM
GI50 (HOP-62 NSCLC): 1.96 µM
TGI (HOP-62 NSCLC): 4.82 µM
GI50 (HOP-92 NSCLC): 2.06 µM
TGI (HOP-92 NSCLC): 4.2 µM
GI50 (HS 578T breast): 2.39 µM
TGI (HS 578T breast): 6.45 µM
GI50 (HT29 colon): 1.74 µM
TGI (HT29 colon): 3.34 µM
GI50 (IGROV1 ovarian): 2.19 µM
TGI (IGROV1 ovarian): 5.18 µM
GI50 (K-562 leukemia): 2.72 µM
TGI (K-562 leukemia): 7.52 µM
GI50 (KM12 colon): 2.47 µM
TGI (KM12 colon): 6.13 µM
GI50 (M14 melanoma): 1.83 µM
TGI (M14 melanoma): 3.52 µM
GI50 (MALME-3M melanoma): 1.72 µM
TGI (MALME-3M melanoma): 3.14 µM
GI50 (MCF7 breast): 1.77 µM
TGI (MCF7 breast): 3.95 µM
GI50 (MDA-MB-231 breast): 1.97 µM
TGI (MDA-MB-231 breast): 3.66 µM
GI50 (MDA-MB-435): 1.78 µM
TGI (MDA-MB-435): 3.33 µM
GI50 (MDA-MB-468 breast): 1.92 µM
TGI (MDA-MB-468 breast): 4.11 µM
GI50 (MOLT-4 leukemia): 2.44 µM
TGI (MOLT-4 leukemia): 7.25 µM
GI50 (NCI-H226 lung): 21.7 µM
TGI (NCI-H226 lung): 68.5 µM
GI50 (NCI-H23 lung): 2.08 µM
TGI (NCI-H23 lung): 4.78 µM
GI50 (NCI-H460 lung): 2.02 µM
TGI (NCI-H460 lung): 4.2 µM
GI50 (NCI-H522 lung): 1.65 µM
TGI (NCI-H522 lung): 3.42 µM
GI50 (NCI/ADR-RES ovarian): 2.41 µM
TGI (NCI/ADR-RES ovarian): 6.26 µM
GI50 (OVCAR-3 ovarian): 2.69 µM
TGI (OVCAR-3 ovarian): 6.53 µM
GI50 (OVCAR-4 ovarian): 2.49 µM
TGI (OVCAR-4 ovarian): 6.55 µM
GI50 (OVCAR-5 ovarian): 2.37 µM
TGI (OVCAR-5 ovarian): 6.49 µM
GI50 (OVCAR-8 ovarian): 1.97 µM
TGI (OVCAR-8 ovarian): 3.95 µM
GI50 (PC-3 prostate): 2.2 µM
TGI (PC-3 prostate): 5.54 µM
GI50 (RPMI-8226 leukemia): 2.93 µM
TGI (RPMI-8226 leukemia): 8.56 µM
GI50 (RXF 393 renal): 1.97 µM
TGI (RXF 393 renal): 3.72 µM
GI50 (SF-268 CNS): 3.35 µM
TGI (SF-268 CNS): 13.4 µM
GI50 (SF-295 CNS): 1.78 µM
TGI (SF-295 CNS): 3.68 µM
GI50 (SF-539 CNS): 1.76 µM
TGI (SF-539 CNS): 3.34 µM
GI50 (SK-MEL-2 melanoma): 1.82 µM
TGI (SK-MEL-2 melanoma): 3.63 µM
GI50 (SK-MEL-28 melanoma): 1.78 µM
TGI (SK-MEL-28 melanoma): 3.44 µM
GI50 (SK-MEL-5 melanoma): 1.87 µM
TGI (SK-MEL-5 melanoma): 3.89 µM
GI50 (SK-OV-3 ovarian): 3.32 µM
TGI (SK-OV-3 ovarian): 12.5 µM
GI50 (SN12C renal): 1.71 µM
TGI (SN12C renal): 3.14 µM
GI50 (SNB-19 CNS): 3.09 µM
TGI (SNB-19 CNS): 12.7 µM
GI50 (SNB-75 CNS): 12.9 µM
TGI (SNB-75 CNS): 28.6 µM
GI50 (SR leukemia): 2.16 µM
TGI (SR leukemia): 7.54 µM
GI50 (SW-620 colon): 2.01 µM
TGI (SW-620 colon): 4.05 µM
GI50 (T-47D breast): 2.63 µM
TGI (T-47D breast): 8.91 µM
GI50 (TK-10 renal): 2.01 µM
TGI (TK-10 renal): 8.26 µM
GI50 (U251 CNS): 1.82 µM
TGI (U251 CNS): 3.51 µM
GI50 (UACC-257 melanoma): 1.75 µM
TGI (UACC-257 melanoma): 3.39 µM
GI50 (UACC-62 melanoma): 1.68 µM
TGI (UACC-62 melanoma): 3.09 µM
GI50 (UO-31 renal): 1.62 µM
TGI (UO-31 renal): 3.06 µM
